Data reported in US20030013656A1, “Pyruvate derivatives” (priority 2001, published 2003).

Test system: rat middle cerebral artery occlusion (MCAO) model
Assay: Rat middle cerebral artery occlusion (MCAO) model of cerebral ischemia
Type: in vivo
Details: 2 h, doses in the range of less than about 1 μg/kg to less than about 10 mg/kg, two hours MCAO, read-out: reduction in total infarct volume
Description: Male Wistar rats (Harlan, Ind.) weighing 300-350 g are commonly used in these experiments. Animals are allowed free access to water and commercial rodent diet under standard laboratory conditions. Room temperature is maintained at 20-23° C. and room illumination is on a 12/12-hour light/dark cycle. Animals are acclimatized to the laboratory environment 5 to 7 days prior to the study, and fasted (with free access to water) overnight before surgery.
Anesthesia is maintained by inhalation of 3.0% isoflurane (Aerrane, Front Dodge, Iowa) in […]. The animal's neck is shaved and sterilized before operation. Body temperatures are controlled and maintained at 37.5° C.+/−1 degree via external heating and cooling devices. To lower the body temperature, animals are placed in a cooling chamber that uses ice to cool circulating air. Throughout the study the body temperature is recorded using a temperature transponder (BMDS Inc., Seaford, Del.) implanted subcutaneously at the time of MCAO between the rat shoulder blades, which allows the user to read the body temperature via a pocket scanner (BMDS Inc., Seaford, Del.). The body temperature can also be taken by inserting the temperature probe into the animal's rectum. Body temperature is recorded every hour for 6 hours post-occlusion, but temperature is measured more frequently to facilitate maintaining the animals' normothermic temperature.
Animals are subjected to two hours MCAO using a modified intraluminal filament technique, as follows. A midline incision on the ventral part of the neck is made to expose external and internal carotid arteries. The right external and common carotid arteries are ligated by a suture (silk 5/0, Carlisle Laboratories, Farmers Branch, Tex.) and the right internal artery is temporarily ligated using a microvascular clip (Fine Science Tool Inc., Foster City, Calif.). A small incision is made in the common carotid artery. A nylon filament, its tip rounded by heating, is prepared from a fishing line (Stren Fishing Lines, Wilmington, Del.) and is inserted from the right common carotid artery. The filament is advanced into the internal carotid artery 18-20 mm from the point of bifurcation of internal and external arteries and a suture is tightly ligated around the filament. Two hours post occlusion, animals are re-anesthetized to allow reperfusion for the remaining of the experiment by removal of the filament. C. Drug Administration
Test compounds can be administered by any of a number of routes, such as those described below. Compounds can be administered before, during or after occlusion, as appropriate to the protocol.
One hour after MCAO, the animal is gently held by its tail and observed for forelimb flexion. Then the animal is placed on the floor to be observed for walking pattern; only the animals that score 3 on the Bederson grading system (Table 1) are included in the study.
Twenty-four hours post-MCAO, or longer in some experiments, animals are sacrificed by CO2 asphyxiation (dry ice). The brain is quickly removed from the skull, using standard procedures, rinsed in chilled saline solution, and placed on a rat brain tissue slicer (ASI instrument, MI). Seven 2-mm thick coronal slices are cut from each brain using razor blades. The slices are immersed in 0.9% saline containing 1.0% 2,3,5-triphenyltetrazolume chloride (TTC) (Sigma Chemical Co., St. Louis, Mo.) and incubated in a 37° C. water bath for 30 minutes.
After staining, each 2-mm slice is photographed with a TMC-7 camera (JH Technologies, Ca) which is directly connected to a desktop PC to capture and save the image of each brain slice. This image is used for the measurements of the regions of interest using a computer-based image processing system (Metamorph).
To measure each area, the region of interest is selected using a freehand selection tool, the area is automatically computed by selecting the measure command. […]

| Compound | inhibition in vivo at up to 10 mg/kg |
| --- | --- |
| COC(=O)C(Cc1ccccc1)NC(=O)C(=O)CSCC(NC(=O)CCC(N)C(=O)O)C(=O)NCC(=O)O (centres unmarked) [2-Amino-4-{1-(carboxymethyl-carbamoyl)-2-[2-(1-methoxycarbonyl-2-phenyl-ethylcarbamoyl)-2-oxo-ethylsulfanyl]-ethylcarbamoyl}-butyric acid] | 20 to 80% |
| CCOC(=O)C(CSCC(NC(=O)CCC(N)C(=O)O)C(=O)NCC(=O)O)=NO (centres unmarked) [2-amino-4-[1-(carboxymethyl-carbamoyl)-2-(2-ethoxycarbonyl-2-hydroxyimino-ethylsulfanyl)-ethylcarbamoyl]-butyric acid] | 20 to 80% |
| CCCCOC(=O)C(CSCC(NC(=O)CCC(N)C(=O)O)C(=O)NCC(=O)O)=NOC (centres unmarked) [2-Amino-4-[2-(2-butoxycarbonyl-2-methoxyimino-ethylsulfanyl)-1-(carboxymethyl-carbamoyl)-ethylcarbamoyl]-butyric acid] | 20 to 80% |
| CCOC(=O)C(N)CCC(=O)NC(CSCC(=O)C(=O)O)C(=O)NCC(=O)O (centres unmarked) [2-amino-4-[1-(carboxymethyl-carbamoyl)-2-(2-carboxy-2-oxo-ethylsulfanyl)-ethylcarbamoyl]-butyric acid ethyl ester] | 20 to 80% |
| NC(CCC(=O)NC(CSCC(=O)C(=O)O)C(=O)NCC(=O)O)C(=O)O (centres unmarked) [2-amino-4-[1-(carboxymethyl-carbamoyl)-2-(2-carboxy-2-oxo-ethylsulfanyl)-ethylcarbamoyl]-butyric acid] | 20 to 80% |
| CCOC(=O)C(=O)CSC1=NCCS1 [3-(4,5-dihydro-thiazol-2-ylsulfanyl)-2-oxo-propionic acid ethyl ester] | 20 to 80% |
| NC(CCC(=O)NC(CSCC(=O)C(=O)N1CCCCC1)C(=O)NCC(=O)O)C(=O)O (centres unmarked) [2-Amino-4-[1-(carboxymethyl-carbamoyl)-2-(2,3-dioxo-3-piperidin-1-yl-propylsulfanyl)-ethylcarbamoyl]-butyric acid] | 20 to 80% |
| CCOC(=O)C(=O)CSc1nc2cc([N+](=O)[O-])ccc2[nH]1 [3-(5-nitro-1H-benzoimidazol-2-ylsulfanyl)-2-oxo-propionic acid ethyl ester] | 20 to 80% |
| CCCCCCOC(=O)C(=O)CSCC(NC(=O)CCC(N)C(=O)O)C(=O)NCC(=O)O (centres unmarked) [2-amino-4-[1-(carboxymethyl-carbamoyl)-2-(2-hexyloxycarbonyl-2-oxo-ethylsulfanyl)-ethylcarbamoyl]-butyric acid] | 20 to 80% |
| NC(CCC(=O)NC(CSCC(=NO)C(=O)N1CCCCC1)C(=O)NCC(=O)O)C(=O)O (centres unmarked) [2-Amino-4-[1-(carboxymethyl-carbamoyl)-2-(2-hydroxyimino-3-oxo-3-piperidin-1-yl-propylsulfanyl)-ethylcarbamoyl]-butyric acid] | 20 to 80% |
| CCOC(=O)C(=O)CSc1nc2cc(OC)ccc2[nH]1 [3-(5-methoxy-1H-benzoimidazol-2-ylsulfanyl)-2-oxo-propionic acid ethyl ester] | 20 to 80% |
| CCOC(=O)C(=O)CSc1nc2ccccc2[nH]1 [3-(1H-Benzoimidazol-2-ylsulfanyl)-2-oxo-propionic acid ethyl ester] | 20 to 80% |
| CCCCOC(=O)C(CSCC(NC(=O)CCC(N)C(=O)O)C(=O)NCC(=O)O)=NOCc1ccccc1 (centres unmarked) [2-Amino-4-[2-(2-benzyloxyimino-2-butoxycarbonyl-ethylsulfanyl)-1-(carboxymethyl-carbamoyl)-ethylcarbamoyl]-butyric acid] | 20 to 80% |
| CCOC(=O)/C(CSCC(NC(=O)CCC(N)C(=O)O)C(=O)NCC(=O)O)=N\OC (centres unmarked) [2-Amino-4-[1-(carboxymethyl-carbamoyl)-2-(2-ethoxycarbonyl-2-methoxyimino-ethylsulfanyl)-ethylcarbamoyl]-butyric acid] | 20 to 80% |
